Measurements reported in patent EP4692083A1, “NOVEL AZABICYCLE DERIVATIVES AND PHARMACEUTICAL COMPOSITION FOR INHIBITING AUTOTAXIN, COMPRISING SAME” (Nextgen Bioscience Co., Ltd., priority 2023, dated 2024).

The compounds below were run against human Autotaxin protein (Homo sapiens, UniProt Q13822) (assay: Evaluation of the inhibitory activity against human Autotaxin protein (18:1 LysoPC substrate, choline assay kit, absorbance at 570 nm)). Settings: at 500nM compound, 2 hours at 37 °C, read-out: Inhibition rate (%, at 500nM).
Type: biochemical
Protocol: Solutions of each synthesized compound (80 uM, 100% dimethyl sulfoxide) were sequentially diluted 5-fold with dimethyl sulfoxide to prepare 6 concentrations. Each concentration of the compound was diluted 2-fold with 1x test buffer (50 mM Tris-Cl (pH 8.0), 5 mM KCl, 1 mM CaCl2, 1 mM MgCl2, 140 mM NaCl, deionized water, 1 mg/mL BSA), and 1 uL (1.25% dimethylsulfoxide) of the diluted mixture was dispensed into each well of a 96-well clear round-bottom plate. 9 uL of 1x test buffer was added, and 20 uL of 240 nM human autotaxin protein (buffer: 50 mM Tris-HCl, pH 8.0, with 150 mM sodium chloride and 20% glycerol) was added. 10 uL of sonicated 360 uM 18:1 LysoPC (diluted with 1x assay buffer) was added. The reaction was performed for 2 hours in a shaking incubator at 37 °C, and a secondary reaction mixture (choline assay kit, KA1662) (65 uL of 1x assay buffer: 1 uL of choline oxidase: 1 uL of dye probe) was prepared. 60 uL of the secondary reaction mixture was added to the plate where the reaction was performed, and incubated for 30 minutes in a shaker. The absorbance value was measured at a wavelength of 570 nm using a SpectraMax iD3 microplate reader. The percentage inhibition activity value (% inhibition) was calculated by the formula: (1 - absorbance value test group / absorbance value control group) X 100.

Row | SMILES | inhibition at 0.5 µM [%]
1 | c1ccc(CNc2ncc(-c3nnc(N4C[C@@H]5[C@H](C4)[C@H]5c4cnn[nH]4)o3)cn2)cc1 [Example 1, 5-(5-((1R,5S,6r)-6-(1H-1,2,3-Triazol-5-yl)-3-azabicyclo[3.1.0]hexan-3-yl)-1,3,4-oxadiazol-2-yl)-N-benzylpyrimidin-2-amine] | 63.6
2 | Clc1cccc(CNc2ncc(-c3nnc(N4C[C@@H]5[C@H](C4)[C@H]5c4cnn[nH]4)o3)cn2)c1 [Example 2, 5-(5-((1R,5S,6r)-6-(1H-1,2,3-Triazol-5-yl)-3-azabicyclo[3.1.0]hexan-3-yl)-1,3,4-oxadiazol-2-yl)-N-(3-chlorobenzyl)pyrimidin-2-amine] | 88.5
3 | Clc1ccc(CNc2ncc(-c3nnc(N4C[C@@H]5[C@H](C4)[C@H]5c4cnn[nH]4)o3)cn2)cc1 [Example 3, 5-(5-((1R,5S,6r)-6-(1H-1,2,3-Triazol-5-yl)-3-azabicyclo[3.1.0]hexan-3-yl)-1,3,4-oxadiazol-2-yl)-N-(4-chlorobenzyl)pyrimidin-2-amine] | 73.1
4 | Fc1ccc(CNc2ncc(-c3nnc(N4C[C@@H]5[C@H](C4)[C@H]5c4cnn[nH]4)o3)cn2)cc1F [Example 4, 5-(5-((1R,5S,6r)-6-(1H-1,2,3-Triazol-5-yl)-3-azabicyclo[3.1.0]hexan-3-yl)-1,3,4-oxadiazol-2-yl)-N-(3,4-difluorobenzyl)pyrimidin-2-amine] | 81.5
5 | Fc1cc(F)cc(CNc2ncc(-c3nnc(N4C[C@@H]5[C@H](C4)[C@H]5c4cnn[nH]4)o3)cn2)c1 [Example 5, 5-(5-((1R,5S,6r)-6-(1H-1,2,3-Triazol-5-yl)-3-azabicyclo[3.1.0]hexan-3-yl)-1,3,4-oxadiazol-2-yl)-N-(3,5-difluorobenzyl)pyrimidin-2-amine] | 86.4
6 | Clc1ccc(CNc2ncc(-c3nnc(N4C[C@@H]5[C@H](C4)[C@H]5c4cnn[nH]4)o3)cn2)cc1Cl [Example 6, 5-(5-((1R,5S,6r)-6-(1H-1,2,3-Triazol-5-yl)-3-azabicyclo[3.1.0]hexan-3-yl)-1,3,4-oxadiazol-2-yl)-N-(3,4-dichlorobenzyl)pyrimidin-2-amine] | 68.9
7 | Clc1cc(Cl)cc(CNc2ncc(-c3nnc(N4C[C@@H]5[C@H](C4)[C@H]5c4cnn[nH]4)o3)cn2)c1 [Example 7, 5-(5-((1R,5S,6r)-6-(1H-1,2,3-Triazol-5-yl)-3-azabicyclo[3.1.0]hexan-3-yl)-1,3,4-oxadiazol-2-yl)-N-(3,5-dichlorobenzyl)pyrimidin-2-amine] | 92
8 | Brc1cc(Br)cc(CNc2ncc(-c3nnc(N4C[C@@H]5[C@H](C4)[C@H]5c4cnn[nH]4)o3)cn2)c1 [Example 8, 5-(5-((1R,5S,6r)-6-(1H-1,2,3-Triazol-5-yl)-3-azabicyclo[3.1.0]hexan-3-yl)-1,3,4-oxadiazol-2-yl)-N-(3,5-dibromobenzyl)pyrimidin-2-amine] | 97.3
9 | c1cc2c(cc1CNc1ncc(-c3nnc(N4C[C@@H]5[C@H](C4)[C@H]5c4cnn[nH]4)o3)cn1)OCO2 [Example 9, 5-(5-((1R,5S,6r)-6-(1H-1,2,3-Triazol-5-yl)-3-azabicyclo[3.1.0]hexan-3-yl)-1,3,4-oxadiazol-2-yl)-N-(benzo[d][1,3]dioxol-5-ylmethyl)pyrimidin-2-amine] | 40.6
10 | FC(F)(F)c1cc(CNc2ncc(-c3nnc(N4C[C@@H]5[C@H](C4)[C@H]5c4cnn[nH]4)o3)cn2)cc(C(F)(F)F)c1 [Example 10, 5-(5-((1R,5S,6r)-6-(1H-1,2,3-Triazol-5-yl)-3-azabicyclo[3.1.0]hexan-3-yl)-1,3,4-oxadiazol-2-yl)-N-(3,5-bis(trifluoromethyl)benzyl)pyrimidin-2-amine] | 91.6
11 | c1ccc(CCNc2ncc(-c3nnc(N4C[C@@H]5[C@H](C4)[C@H]5c4cnn[nH]4)o3)cn2)cc1 [Example 11, 5-(5-((1R,5S,6r)-6-(1H-1,2,3-Triazol-5-yl)-3-azabicyclo[3.1.0]hexan-3-yl)-1,3,4-oxadiazol-2-yl)-N-phenethylpyrimidin-2-amine] | 85.3
12 | Fc1cccc(CCNc2ncc(-c3nnc(N4C[C@@H]5[C@H](C4)[C@H]5c4cnn[nH]4)o3)cn2)c1 [Example 12, 5-(5-((1R,5S,6r)-6-(1H-1,2,3-Triazol-5-yl)-3-azabicyclo[3.1.0]hexan-3-yl)-1,3,4-oxadiazol-2-yl)-N-(3-fluorophenethyl)pyrimidin-2-amine] | 82.9
13 | Fc1ccc(CCNc2ncc(-c3nnc(N4C[C@@H]5[C@H](C4)[C@H]5c4cnn[nH]4)o3)cn2)cc1 [Example 13, 5-(5-((1R,5S,6r)-6-(1H-1,2,3-Triazol-5-yl)-3-azabicyclo[3.1.0]hexan-3-yl)-1,3,4-oxadiazol-2-yl)-N-(4-fluorophenethyl)pyrimidin-2-amine] | 86
14 | Clc1cccc(CCNc2ncc(-c3nnc(N4C[C@@H]5[C@H](C4)[C@H]5c4cnn[nH]4)o3)cn2)c1 [Example 14, 5-(5-((1R,5S,6r)-6-(1H-1,2,3-Triazol-5-yl)-3-azabicyclo[3.1.0]hexan-3-yl)-1,3,4-oxadiazol-2-yl)-N-(3-chlorophenethyl)pyrimidin-2-amine] | 85.3
15 | Clc1ccc(CCNc2ncc(-c3nnc(N4C[C@@H]5[C@H](C4)[C@H]5c4cnn[nH]4)o3)cn2)cc1 [Example 15, 5-(5-((1R,5S,6r)-6-(1H-1,2,3-Triazol-5-yl)-3-azabicyclo[3.1.0]hexan-3-yl)-1,3,4-oxadiazol-2-yl)-N-(4-chlorophenethyl)pyrimidin-2-amine] | 94.5
16 | c1ccc2c(c1)CC(Nc1ncc(-c3nnc(N4C[C@@H]5[C@H](C4)[C@H]5c4cnn[nH]4)o3)cn1)C2 [Example 16, 5-(5-((1R,5S,6r)-6-(1H-1,2,3-Triazol-5-yl)-3-azabicyclo[3.1.0]hexan-3-yl)-1,3,4-oxadiazol-2-yl)-N-(2,3-dihydro-1H-inden-2-yl)pyrimidin-2-amine] | 98.6
17 | Fc1cc2c(cc1F)CC(Nc1ncc(-c3nnc(N4C[C@@H]5[C@H](C4)[C@H]5c4cnn[nH]4)o3)cn1)C2 [Example 17, 5-(5-((1R,5S,6r)-6-(1H-1,2,3-Triazol-5-yl)-3-azabicyclo[3.1.0]hexan-3-yl)-1,3,4-oxadiazol-2-yl)-N-(5,6-difluoro-2,3-dihydro-1H-inden-2-yl)pyrimidin-2-amine] | 96.7

Continued, values first:

Row | inhibition at 0.5 µM [%] | SMILES
18 | 87.6 | Brc1ccc2c(c1)CC(Nc1ncc(-c3nnc(N4C[C@@H]5[C@H](C4)[C@H]5c4cnn[nH]4)o3)cn1)C2 (stereo partly drawn) [Example 18, 5-(5-((1R,5S,6r)-6-(1H-1,2,3-Triazol-5-yl)-3-azabicyclo[3.1.0]hexan-3-yl)-1,3,4-oxadiazol-2-yl)-N-(5-bromo-2,3-dihydro-1H-inden-2-yl)pyrimidin-2-amine]
19 | 91.9 | O=C(CCc1cnc(NC2Cc3ccccc3C2)nc1)N1C[C@@H]2[C@H](C1)[C@H]2c1cnn[nH]1 [Example 19, 1-((1R,5S,6r)-6-(1H-1,2,3-Triazol-5-yl)-3-azabicyclo[3.1.0]hexan-3-yl)-3-(2-((2,3-dihydro-1H-inden-2-yl)amino)pyrimidin-5-yl)propan-1-one]
20 | 88.5 | FC(F)(F)c1ccc(CNc2ncc(-c3nnc(N4C[C@@H]5[C@H](C4)[C@H]5c4cnn[nH]4)o3)cn2)cc1 [Example 20, 5-(5-((1R,5S,6r)-6-(1H-1,2,3-Triazol-5-yl)-3-azabicyclo[3.1.0]hexan-3-yl)-1,3,4-oxadiazol-2-yl)-N-(4-(trifluoromethyl)benzyl)pyrimidin-2-amine]
21 | 97.6 | FC(F)(F)c1cccc(CNc2ncc(-c3nnc(N4C[C@@H]5[C@H](C4)[C@H]5c4cnn[nH]4)o3)cn2)c1 [Example 21, 5-(5-((1R,5S,6r)-6-(1H-1,2,3-Triazol-5-yl)-3-azabicyclo[3.1.0]hexan-3-yl)-1,3,4-oxadiazol-2-yl)-N-(3-(trifluoromethyl)benzyl)pyrimidin-2-amine]
22 | 98.4 | FC(F)(F)c1ccccc1CNc1ncc(-c2nnc(N3C[C@@H]4[C@H](C3)[C@H]4c3cnn[nH]3)o2)cn1 [Example 22, 5-(5-((1R,5S,6r)-6-(1H-1,2,3-Triazol-5-yl)-3-azabicyclo[3.1.0]hexan-3-yl)-1,3,4-oxadiazol-2-yl)-N-(2-(trifluoromethyl)benzyl)pyrimidin-2-amine]
23 | 82.2 | FC(F)c1ccc(CNc2ncc(-c3nnc(N4C[C@@H]5[C@H](C4)[C@H]5c4cnn[nH]4)o3)cn2)cc1 [Example 23, 5-(5-((1R,5S,6r)-6-(1H-1,2,3-Triazol-5-yl)-3-azabicyclo[3.1.0]hexan-3-yl)-1,3,4-oxadiazol-2-yl)-N-(4-(difluoromethyl)benzyl)pyrimidin-2-amine]
24 | 66.3 | N#Cc1ccc(CNc2ncc(-c3nnc(N4C[C@@H]5[C@H](C4)[C@H]5c4cnn[nH]4)o3)cn2)cc1 [Example 24, 4-(((5-(5-((1R,5S,6r)-6-(1H-1,2,3-Triazol-5-yl)-3-azabicyclo[3.1.0]hexan-3-yl)-1,3,4-oxadiazol-2-yl)pyrimidin-2-yl)amino)methyl)benzonitrile]
25 | 95.2 | N#Cc1cccc(CNc2ncc(-c3nnc(N4C[C@@H]5[C@H](C4)[C@H]5c4cnn[nH]4)o3)cn2)c1 [Example 25, 3-(((5-(5-((1R,5S,6r)-6-(1H-1,2,3-Triazol-5-yl)-3-azabicyclo[3.1.0]hexan-3-yl)-1,3,4-oxadiazol-2-yl)pyrimidin-2-yl)amino)methyl)benzonitrile]
